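Grown in 96-well plates, cells were treated for 48 hours with each compound at five concentrations. Insufficient inhibition: endpoint recorded as highest concentration tested. TGI: concentration producing complete growth inhibition.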
Legend:
Assay in all cases: NCI tumour cell line growth inhibition, 48 h
EKVX NSCLC = test system: EKVX NSCLC
RXF 393 renal = test system: RXF 393 renal
HCC-2998 colon = test system: HCC-2998 colon
HL-60(TB) leukemia = test system: HL-60(TB) leukemia
RPMI-8226 leukemia = test system: RPMI-8226 leukemia
HOP-62 NSCLC = test system: HOP-62 NSCLC
SF-539 CNS = test system: SF-539 CNS
A549 NSCLC = test system: A549 NSCLC
MDA-MB-435 = test system: MDA-MB-435
NCI-H460 lung = test system: NCI-H460 lung
SNB-19 CNS = test system: SNB-19 CNS
OVCAR-8 ovarian = test system: OVCAR-8 ovarian

Structure (SMILES) | TGI (EKVX NSCLC) | TGI (RXF 393 renal) | TGI (HCC-2998 colon) | TGI (HL-60(TB) leukemia) | TGI (RPMI-8226 leukemia) | TGI (HOP-62 NSCLC) | TGI (SF-539 CNS) | TGI (A549 NSCLC) | TGI (MDA-MB-435) | TGI (NCI-H460 lung) | TGI (SNB-19 CNS) | TGI (OVCAR-8 ovarian)
O=C(N=C1SCCN1C(=O)C(C(F)(F)F)C(F)(F)F)C(C(F)(F)F)C(F)(F)F | > 100 µM | > 100 µM | > 100 µM | > 100 µM | > 100 µM | > 100 µM | > 100 µM | > 100 µM | > 100 µM | > 100 µM | > 100 µM | > 100 µM
CNc1ccc(-c2nc3cc(C)ccc3o2)cc1 | > 100 µM | 79.8 µM | > 100 µM | > 100 µM | > 100 µM | > 100 µM | > 100 µM | > 100 µM | > 100 µM | > 100 µM | > 100 µM | > 100 µM
O=[N+]([O-])/C(C(Cl)=C(Cl)Cl)=C1\NCCO1 | > 100 µM | > 100 µM | > 100 µM | > 100 µM | > 100 µM | > 100 µM | > 100 µM | > 100 µM | > 100 µM | > 100 µM | > 100 µM | > 100 µM
CC1(C)N=C(C(N)=O)c2ncn(CCO)c2N1 | > 100 µM | > 100 µM | > 100 µM | > 100 µM | > 100 µM | > 100 µM | > 100 µM | > 100 µM | > 100 µM | > 100 µM | > 100 µM | > 100 µM
CCCCCC(=O)N[C@@H](c1ccccc1)C(O)C(=O)OC1C[C@@]2(O)C(OC(=O)c3ccccc3)C3[C@](C)(C(=O)[C@H](O)C(=C1C)C2(C)C)C(OC1OCC(O)C(O)C1O)C[C@H]1OC[C@@]31OC(C)=O (some centres not stated) | > 100 µM | > 41 µM | 10.5 µM | 7.79 µM | > 100 µM | > 75.8 µM | 5.68 µM | > 100 µM | 1.78 µM | > 100 µM | > 100 µM | > 100 µM
O=C(/C=C/c1ccsc1)c1ccco1 | 36 µM | 27 µM | 26.3 µM | 24 µM | 16.1 µM | 28.1 µM | 32.5 µM | 11.7 µM | > 50.3 µM | 33.4 µM | 28.8 µM | 24 µM
Clc1cc2c(c(CSC3=NCN(CC4CC4)CN3)c1)OCOC2 | 53.4 µM | 36.9 µM | 28.4 µM | 33.7 µM | 38.2 µM | 86.7 µM | 43.4 µM | 77.6 µM | 74.3 µM | 39.6 µM | > 100 µM | > 100 µM
Cc1ccc(OCC2OC(n3cnc4nc(Cl)nc(Cl)c43)CC2Oc2ccc(C)cc2)cc1 (configuration not stated) | 34 µM | 15.7 µM | 12.2 µM | 3.94 µM | 9.35 µM | 34.8 µM | 13.9 µM | > 63.3 µM | 24.3 µM | 20.2 µM | 30.1 µM | 59.5 µM
COC1=C(N=[N+]=[N-])C(=O)c2ncccc2C1=O | 17.3 µM | 11.9 µM | 31 µM | 3.98 µM | 4.89 µM | 29.4 µM | 30.5 µM | 32.1 µM | 4.41 µM | 32.6 µM | 30.9 µM | 7.56 µM
O=C1/C(=C\c2cccc(Oc3ccccc3)c2)S(=O)(=O)C(c2ccccc2)N1c1ccccc1Cl (configuration not stated) | 92.2 µM | > 100 µM | > 100 µM | 33.6 µM | 56.8 µM | > 100 µM | 34.3 µM | > 100 µM | 87 µM | > 100 µM | 64 µM | > 100 µM
N#Cc1c(SCc2ccccc2)nc(-c2ccccc2)[nH]c1=S | 93.6 µM | 44.9 µM | 39.8 µM | > 100 µM | 89.9 µM | 40.7 µM | 56.6 µM | > 100 µM | 61.3 µM | 51.4 µM | > 100 µM | 76.7 µM
O=c1[nH]nc(-c2ccccc2)n1/N=C/c1ccncc1 | > 100 µM | > 100 µM | > 100 µM | > 100 µM | > 100 µM | > 100 µM | > 100 µM | > 100 µM | > 100 µM | > 100 µM | > 100 µM | > 100 µM
CC(=O)N1CCc2c([nH]c3ccc(Br)cc23)C1c1ccccc1 (configuration not stated) | > 10 µM | > 10 µM | > 10 µM | > 10 µM | > 10 µM | > 10 µM | > 10 µM | > 10 µM | > 10 µM | > 10 µM | > 10 µM | > 10 µM
Cc1c(C(=O)N2CCN(c3ccc([N+](=O)[O-])cc3)CC2)[n+](=O)c2cc(Cl)c(Cl)cc2n1[O-] | 41.1 µM | 27.5 µM | 33.2 µM | > 100 µM | 63.4 µM | 38.2 µM | 32.6 µM | 48.5 µM | > 100 µM | 56.7 µM | 42.1 µM | 33 µM
[Se]=P(c1ccccc1)(c1ccccc1)c1ccc(C(c2ccccc2)=P(c2ccccc2)(c2ccccc2)c2ccccc2)cc1 | 15.8 µM | 10.9 µM | 11.6 µM | 1.06 µM | 8.05 µM | 4.33 µM | 17.8 µM | 13 µM | 3.46 µM | 10.9 µM | 16 µM | 8.02 µM
Clc1nc(Cl)c(Cl)c(Cl)n1 | 94.4 µM | 35 µM | 35.5 µM | 33.1 µM | > 100 µM | 35.7 µM | 47.9 µM | 40.5 µM | > 61 µM | 51.9 µM | 38.8 µM | 80.2 µM
COC(=O)c1ccccc1C#CC#Cc1ccccc1C(=O)OC | > 10 µM | > 10 µM | > 10 µM | 8.25 µM | > 10 µM | > 10 µM | > 10 µM | > 10 µM | > 10 µM | > 10 µM | > 10 µM | > 10 µM
C=CCOc1ccccc1N=N/C(C#N)=N\Nc1ccccc1OCC=C | > 100 µM | > 100 µM | > 100 µM | > 100 µM | > 100 µM | > 100 µM | > 100 µM | > 100 µM | > 100 µM | > 100 µM | > 100 µM | > 100 µM
CN(C)c1nc(NC23CC4CC(CC(C4)C2)C3)nc(N(C)C)n1 | > 100 µM | 17.7 µM | 97.1 µM | 13.5 µM | 12.7 µM | > 90.4 µM | > 79.6 µM | > 39.4 µM | > 100 µM | > 100 µM | > 40.1 µM | > 100 µM
COC(=O)C(CCc1ccccc1I)C1=CCC2(CC1)OCCO2 (configuration not stated) | > 100 µM | 67.2 µM | > 100 µM | 17.4 µM | > 100 µM | > 100 µM | > 100 µM | > 100 µM | 87.7 µM | > 100 µM | > 100 µM | > 100 µM
C/C(=N/NC(=S)Nc1ccccc1Cl)c1cccc(/C(C)=N\NC(=S)Nc2ccccc2Cl)n1 | > 100 µM | > 100 µM | > 100 µM | > 100 µM | > 100 µM | > 100 µM | > 100 µM | > 100 µM | > 100 µM | > 100 µM | > 100 µM | 81.8 µM
